Data as given in patent US11766469B2, “Q-peptide hydrogel promotes immune modulation and macrophage differentiation” (Quthero, Inc., priority 2019, dated 2023).

Key:
[1] = system: bone marrow derived macrophages (BMDMs); assay: ELISA of cytokines released by BMDMs into culture media; assay type: cell-based, C57BL/6 mice; conditions: 24 hours of culture
Description: (§1) Murine bone marrow derived macrophages (BMDM) were isolated from 8-12 week-old C57BL/6 mice (Charles River) according to a protocol approved by the University of Toronto Animal Care Committee. The mice were euthanized, and the femur and tibias were removed and placed in complete RPMI 1640+L-glutamine media (Gibco, 10% heat inactivated Fetal Bovine Serum, FBS, 1% Pen/Strep). The bones were separated and sterilized in 70% ethanol for 10 minutes. The heads of the bones were cut off, and the marrow was flushed out with a 23 G needle containing fresh complete RPMI 1640 media. The remaining cell culture media and bone marrow was homogenized by gentle pipetting. The cells were spun down and resuspended in ACK Lysing Buffer (Gibco) for 1 min to lyse remaining red blood cells. The lysing buffer was diluted with PBS, and the cell suspension was re-spun, and counted. Cells were seeded at 3 million cells/well in non-adherent 6-well culture plates containing 2 mL of complete RPMI 1640 media with 20 ng/mL of Macrophage Colony Stimulating Factor (M-CSF, Miltenyi Biotec). Half (50%) of the media was changed on day 3, and 5. On day 7, adherent cells were used as macrophages for experiments. Macrophage purity, as identified by F4/80+, CD11b+ positive staining, under all culture stimulations is >90%, consistent with previous studies (FIG. 6B).
Adherent macrophages were detached by incubating with 0.25% trypsin-EDTA for 10 minutes. Cells were polarized in response to the following treatment conditions: blank-included cultivation on tissue culture plastics; soluble Q-Peptide (650 μM) applied to macrophages cultivated on tissue culture plastics; and macrophages cultivated on the following hydrogel films: no peptide collagen-chitosan (empty) film, scrambled Q-Peptide film, and Q-Peptide film. BMDMs were polarized with lipopolysaccharide (LPS; 100 ng/mL) for pro-inflammatory, M(LPS), and IL-4 ([…]) for anti-inflammatory, M(IL-4) positive polarization controls. Cells were seeded directly onto a non-adherent 6-well plate for the blank and soluble Q-Peptide conditions, and onto solvent cast films for the empty film, scrambled Q-Peptide film, and Q-Peptide film at a concentration of 100,000 cells/cm^2. After 24 hours of culture, cell culture media was collected for ELISA analysis by Eve Technologies (Calgary, AB), and the concentrations of INF-γ, IL-1β, IL-2, IL-4, IL-6, IL-10, IL-12 p′70, GM-CSF, MCP-1, TNF-α, TGF-β31, TGF-β2, and TGF-β3 were measured.

[2] = system: bone marrow derived macrophages (BMDMs); assay: BMDM culture on hydrogel films: cell attachment, total cell count, viability (Zombie Violet); assay type: cell-based, C57BL/6 mice; conditions: after 24 hours of culture
Description: as §1, with “Cells were seeded at 3 million cells/well in non-adherent 6-well culture plates containing 2 mL of complete RPMI 1640 media with 20 ng/mL of Macrophage Colony Stimulating Factor (M-CSF, Miltenyi Biotec). Half (50%) of the media was changed on day 3, and 5. On day 7, adherent cells were used as macrophages for experiments. Macrophage purity, as identified by F4/80+, CD11b+ positive staining, under all culture stimulations is >90%, consistent with previous studies (FIG. 6B).” left out
Adherent macrophages were detached by incubating with 0.25% trypsin-EDTA for 10 minutes. […] After 24 hours of culture, cell culture media was collected for ELISA analysis by Eve Technologies (Calgary, AB), and the concentrations of INF-γ, IL-1β, IL-2, IL-4, IL-6, IL-10, IL-12 p′70, GM-CSF, MCP-1, TNF-α, TGF-β31, TGF-β2, and TGF-β3 were measured. […]

[3] = system: rat myocardial infarction model; conditions: cited from earlier work
wounds = wounds treated; cited from earlier work
[4] = compared to blank, soluble Q-Peptide and empty film (LPS: vs Q-Peptide film)

Molecule: QHREDGS (SEQ ID NO: 1) with biotin-Ahx N-terminal modification [soluble Q-Peptide]
- BMDM cytokine release / cytokine concentration (overall) [1]: only had an effect on BMDM cytokine release when immobilized to a hydrogel
- final cell count (cells in solution and attached) [2]: did not affect the final cell count
- cell attachment (number of adhered cells/mm2) ([2]; compared with blank culture conditions): decrease in cell attachment
- effectiveness in myocardial infarction model [3]: effective

Molecule: lipopolysaccharide [LPS]
- concentration of IL-6 [1, 4]: an order of magnitude greater
- concentration of MCP-1 [1, 4]: an order of magnitude greater
- concentration of IL-10 ([1]; relative to the other culture conditions (LPS: vs Q-Peptide film)): an order of magnitude greater

B1: recombinant human TGF-β3: recombinant human TGF-β3 used to treat wounds in a clinical trial (protein, UniProt P10600 301-412, looked up)
Transforming growth factor …: ALDTNYCFRNLEENCCVRPLYIDFRQDLGWKWVHEPKGYYANFCSGPCPYLRSADTTHSTVLGLYNTLNPEASASPCCVPQDLEPLTILYYVGRTPKVEQLSNMVVKSCKCS
- primary and secondary outcomes of a Phase III trial (wounds): failed to reach primary and secondary outcomes
